Numbers after ± are expanded uncertainties.
Assay: xn = mol fraction of the nth substance listed
Conditions: Liquid

CO [methanol] + O
excess molar volume [m3/mol]
Conditions	298.15 K	323.15 K	348.15 K	373.15 K	398.15 K	423.15 K	448.15 K	473.15 K	498.15 K	523.15 K
100 kPa, x1 = 0.25	-7.42e-07 ± 1.9e-08	-7.75e-07 ± 1.9e-08	–	–	–	–	–	–	–	–
100 kPa, x1 = 0.5	-1.014e-06 ± 2e-08	-1.049e-06 ± 2e-08	–	–	–	–	–	–	–	–
100 kPa, x1 = 0.75	-7.05e-07 ± 1.9e-08	-7.38e-07 ± 1.9e-08	–	–	–	–	–	–	–	–
5000 kPa, x1 = 0.25	-7.13e-07 ± 1.9e-08	-7.41e-07 ± 1.9e-08	-7.75e-07 ± 1.9e-08	-8.26e-07 ± 1.9e-08	-8.9e-07 ± 2e-08	-9.81e-07 ± 2e-08	-1.223e-06 ± 2.2e-08	-1.902e-06 ± 2.5e-08	–	–
5000 kPa, x1 = 0.5	-9.63e-07 ± 2e-08	-9.91e-07 ± 2e-08	-1.022e-06 ± 2e-08	-1.082e-06 ± 2.1e-08	-1.146e-06 ± 2.1e-08	-1.247e-06 ± 2.1e-08	-1.583e-06 ± 2.3e-08	-2.545e-06 ± 2.8e-08	–	–
5000 kPa, x1 = 0.75	-6.74e-07 ± 1.9e-08	-7.02e-07 ± 1.9e-08	-7.58e-07 ± 1.9e-08	-8.14e-07 ± 1.9e-08	-8.68e-07 ± 2e-08	-9.59e-07 ± 2e-08	-1.163e-06 ± 2.1e-08	-1.736e-06 ± 2.4e-08	–	–
10000 kPa, x1 = 0.25	-6.85e-07 ± 1.9e-08	-7.07e-07 ± 1.9e-08	-7.33e-07 ± 1.9e-08	-7.67e-07 ± 1.9e-08	-8.12e-07 ± 1.9e-08	-8.74e-07 ± 2e-08	-9.78e-07 ± 2e-08	-1.285e-06 ± 2.2e-08	-2.081e-06 ± 2.6e-08	–
10000 kPa, x1 = 0.5	-9.15e-07 ± 2e-08	-9.36e-07 ± 2e-08	-9.61e-07 ± 2e-08	-9.85e-07 ± 2e-08	-1.017e-06 ± 2e-08	-1.072e-06 ± 2.1e-08	-1.246e-06 ± 2.1e-08	-1.616e-06 ± 2.4e-08	-2.481e-06 ± 2.8e-08	–
10000 kPa, x1 = 0.75	-6.44e-07 ± 1.8e-08	-6.7e-07 ± 1.9e-08	-7.12e-07 ± 1.9e-08	-7.46e-07 ± 1.9e-08	-7.89e-07 ± 1.9e-08	-8.43e-07 ± 1.9e-08	-9.16e-07 ± 2e-08	-1.12e-06 ± 2.1e-08	-1.949e-06 ± 2.5e-08	–
20000 kPa, x1 = 0.25	-6.27e-07 ± 1.8e-08	-6.4e-07 ± 1.8e-08	-6.5e-07 ± 1.9e-08	-6.6e-07 ± 1.9e-08	-6.68e-07 ± 1.9e-08	-6.78e-07 ± 1.9e-08	-7.11e-07 ± 1.9e-08	-8e-07 ± 1.9e-08	-8.98e-07 ± 2e-08	-1.217e-06 ± 2.1e-08
20000 kPa, x1 = 0.5	-8.31e-07 ± 1.9e-08	-8.38e-07 ± 1.9e-08	-8.45e-07 ± 1.9e-08	-8.51e-07 ± 1.9e-08	-8.57e-07 ± 1.9e-08	-8.64e-07 ± 2e-08	-8.73e-07 ± 2e-08	-8.91e-07 ± 2e-08	-9.52e-07 ± 2e-08	-1.421e-06 ± 2.2e-08
20000 kPa, x1 = 0.75	-5.93e-07 ± 1.8e-08	-6.05e-07 ± 1.8e-08	-6.23e-07 ± 1.8e-08	-6.44e-07 ± 1.9e-08	-6.56e-07 ± 1.9e-08	-6.65e-07 ± 1.9e-08	-6.88e-07 ± 1.9e-08	-7.38e-07 ± 1.9e-08	-8.16e-07 ± 2e-08	-1.204e-06 ± 2.1e-08
30000 kPa, x1 = 0.25	-5.75e-07 ± 1.8e-08	-5.74e-07 ± 1.8e-08	-5.73e-07 ± 1.8e-08	-5.71e-07 ± 1.8e-08	-5.68e-07 ± 1.8e-08	-5.65e-07 ± 1.8e-08	-5.62e-07 ± 1.8e-08	-5.58e-07 ± 1.8e-08	-5.54e-07 ± 1.8e-08	-5.47e-07 ± 1.8e-08
30000 kPa, x1 = 0.5	-7.62e-07 ± 1.9e-08	-7.51e-07 ± 1.9e-08	-7.38e-07 ± 1.9e-08	-7.26e-07 ± 1.9e-08	-7.09e-07 ± 1.9e-08	-6.92e-07 ± 1.9e-08	-6.64e-07 ± 1.9e-08	-6.29e-07 ± 1.8e-08	-5.87e-07 ± 1.8e-08	-5.46e-07 ± 1.8e-08
30000 kPa, x1 = 0.75	-5.53e-07 ± 1.8e-08	-5.49e-07 ± 1.8e-08	-5.37e-07 ± 1.8e-08	-5.28e-07 ± 1.8e-08	-5.19e-07 ± 1.8e-08	-5.12e-07 ± 1.8e-08	-4.93e-07 ± 1.8e-08	-4.65e-07 ± 1.8e-08	-4.28e-07 ± 1.8e-08	-3.91e-07 ± 1.7e-08
40000 kPa, x1 = 0.25	-5.29e-07 ± 1.8e-08	-5.2e-07 ± 1.8e-08	-5.12e-07 ± 1.8e-08	-5.07e-07 ± 1.8e-08	-4.94e-07 ± 1.8e-08	-4.81e-07 ± 1.8e-08	-4.64e-07 ± 1.8e-08	-4.41e-07 ± 1.8e-08	-4.12e-07 ± 1.7e-08	-3.76e-07 ± 1.7e-08
40000 kPa, x1 = 0.5	-7.02e-07 ± 1.9e-08	-6.85e-07 ± 1.9e-08	-6.67e-07 ± 1.9e-08	-6.47e-07 ± 1.9e-08	-6.14e-07 ± 1.8e-08	-5.71e-07 ± 1.8e-08	-5.13e-07 ± 1.8e-08	-4.66e-07 ± 1.8e-08	-4.01e-07 ± 1.7e-08	-3.36e-07 ± 1.7e-08
40000 kPa, x1 = 0.75	-5.14e-07 ± 1.8e-08	-5.02e-07 ± 1.8e-08	-4.81e-07 ± 1.8e-08	-4.58e-07 ± 1.8e-08	-4.35e-07 ± 1.8e-08	-4.2e-07 ± 1.7e-08	-3.86e-07 ± 1.7e-08	-3.3e-07 ± 1.7e-08	-2.7e-07 ± 1.7e-08	-2.01e-07 ± 1.6e-08
50000 kPa, x1 = 0.25	-4.85e-07 ± 1.8e-08	-4.75e-07 ± 1.8e-08	-4.64e-07 ± 1.8e-08	-4.52e-07 ± 1.8e-08	-4.33e-07 ± 1.8e-08	-4.13e-07 ± 1.7e-08	-3.89e-07 ± 1.7e-08	-3.59e-07 ± 1.7e-08	-3.26e-07 ± 1.7e-08	-2.77e-07 ± 1.7e-08
50000 kPa, x1 = 0.5	-6.49e-07 ± 1.9e-08	-6.32e-07 ± 1.8e-08	-6.06e-07 ± 1.8e-08	-5.81e-07 ± 1.8e-08	-5.37e-07 ± 1.8e-08	-4.75e-07 ± 1.8e-08	-4.04e-07 ± 1.7e-08	-3.42e-07 ± 1.7e-08	-2.68e-07 ± 1.7e-08	-1.97e-07 ± 1.6e-08
50000 kPa, x1 = 0.75	-4.65e-07 ± 1.8e-08	-4.55e-07 ± 1.8e-08	-4.4e-07 ± 1.8e-08	-4.14e-07 ± 1.7e-08	-3.8e-07 ± 1.7e-08	-3.49e-07 ± 1.7e-08	-3e-07 ± 1.7e-08	-2.37e-07 ± 1.7e-08	-1.6e-07 ± 1.6e-08	-8.4e-08 ± 1.6e-08
60000 kPa, x1 = 0.25	-4.61e-07 ± 1.8e-08	-4.39e-07 ± 1.8e-08	-4.23e-07 ± 1.7e-08	-4.05e-07 ± 1.7e-08	-3.83e-07 ± 1.7e-08	-3.56e-07 ± 1.7e-08	-3.27e-07 ± 1.7e-08	-2.9e-07 ± 1.7e-08	-2.45e-07 ± 1.7e-08	-1.86e-07 ± 1.6e-08
60000 kPa, x1 = 0.5	-6.02e-07 ± 1.8e-08	-5.84e-07 ± 1.8e-08	-5.58e-07 ± 1.8e-08	-5.21e-07 ± 1.8e-08	-4.75e-07 ± 1.8e-08	-4.01e-07 ± 1.7e-08	-3.18e-07 ± 1.7e-08	-2.41e-07 ± 1.7e-08	-1.61e-07 ± 1.6e-08	-8.4e-08 ± 1.6e-08
60000 kPa, x1 = 0.75	–	-4.28e-07 ± 1.7e-08	-4.06e-07 ± 1.7e-08	-3.72e-07 ± 1.7e-08	-3.33e-07 ± 1.7e-08	-2.84e-07 ± 1.7e-08	-2.23e-07 ± 1.7e-08	-1.58e-07 ± 1.6e-08	-8.4e-08 ± 1.6e-08	-5e-09 ± 1.6e-08

From the NIST ThermoML archive (doi:10.1016/j.jct.2004.03.011)
